Experimental data taken from patent US10478437B2, “Combination therapy to enhance the anticancer efficacy of platinum drugs” (University of Pittsburgh-of the Commonwealth System of …, priority 2014, dated 2019).
Entries after “also recorded” stand apart in the source; their conditions may differ.

Columns and labels:
Type in all cases: cell-based, human
[1] = test system: cisplatin-resistant ovarian cancer cell line A2780cis; assay: CellTiter-Blue cell viability assay, compound alone or with cisplatin or carboplatin, 24 h; details: for viability at 10 µM / viability at 20 µM / viability at 50 µM: Homo sapiens, A2780cis, read-out: survival (%) of cells with compound alone; for viability at 10 µM / viability at 20 µM / viability at 50 µM / survival (%) of cells with compound alone: untreated cells = 100%
Method: Data were expressed as mean±standard deviation. A Student's t test was used for the comparisons between the treatment with the combination of analogs with cisplatin and with analogs alone. P<0.05 was considered statistically significant. Combination index was calculated using CompuSyn software. A value of 0.3-0.7 for the combination index indicates synergism, 0.1-0.3 indicates strong synergism, and <0.1 indicates very strong synergism (Chou, 2006).
To further validate the activity of the identified 11 active compounds (see FIG. 3), a CellTiter-Blue cell viability assay was performed with increasing concentrations (10 μM, 20 μM and 50 μM) of the disclosed compounds (see FIG. 4 and Table 5). Cisplatin resistant ovarian cancer cells (A2780cis) were treated with a disclosed compound alone, cisplatin alone or a combination of a compound with cisplatin for 24 h to determine the effects of the compounds on cell viability.
Analysis of the effect of the disclosed compounds with another platinum-containing compound, carboplatin, was performed. A2780cis cells were treated with carboplatin alone or with the combination of carboplatin and the disclosed compounds at indicated concentrations for 24 h followed by the analysis of cell viability.

[2] = test system: cisplatin-resistant ovarian cancer cell line A2780cis; assay: Caspase-3/7 activity assay (apoptotic cell death), compound alone or with cisplatin; details: for caspase-3/7 activity (Lum), compound with cisplatin / caspase-3/7 activity (Lum), compound alone / caspase-3/7 activity (Lum) with compound and cisplatin (20 μM) / caspase-3/7 activity (Lum) with compound alone: 20 h; for caspase-3/7 activity (Lum) with compound and cisplatin (20 μM) / caspase-3/7 activity (Lum) with compound alone: Table 6; for caspase-3/7 activity (Lum) with compound alone: untreated cells 9 ± 1; for activity in the screen (Caspase-3/7 activity and microscopic examination), active / inactive: alone or in the presence of cisplatin; for activity in the Caspase-3/7 activity assay: possibly interference with the assay system
Method: Cell proliferation was determined using a CyQUANT Direct Cell Proliferation Assay kit (Invitrogen), the activity of caspase-3/7 was measured using a Caspase-Glo 3/7 Assay Systems (Promega, Madison, Wis.), and the MTS calorimetric survival assay was performed using the CellTiter 96 AQueous One Solution Cell Proliferation Assay kit (Promega, Madison, Wis.), according to the manufacturer's instructions. The survival fractions were calculated after setting untreated control cells at 100%. The data were plotted and curve fitted using GraphPad Prism software. To quantify the number of cells with active caspase-3, cells were fixed with 4% paraformaldehyde (Electron microscopy sciences, Hatfield, Pa.), stained with Alexa Fluor-488 conjugated antibody against cleaved caspase-3 (Asp175) (Cell Signaling Technology, Danvers, Mass.) followed by flow cytometry. An FITC Annexin V Apoptosis Detection Kit (BD PharMingen, San Diego, Calif.) was used to quantify apoptotic cells, according to the manufacturer's instructions.
A Caspase-3/7 assay was performed to evaluate the activity of the 36 compounds of FIG. 1 in vitro in the cisplatin-resistant ovarian cancer cell line, A2780cis, alone or in the presence of cisplatin. A microscopic examination of apoptotic morphologic changes was also carried out right before the measurement of Caspase-3/7 activity, in order to confirm that the data on the activation of the Caspase-3/7 following treatment is consistent with morphological change and reflects cell death.

A2780cis cells = assay: Western blot of caspase/PARP cleavage, Noxa induction, RPA32 and H2AX phosphorylation; details: compound 20 μM + cisplatin 20 μM, 20 h, FIG. 7B; in words
Method: Whole cell lysate was prepared by lysing cells in cell lysis buffer (Cell signaling technology) containing complete protease inhibitor (Roche). Cell lysates were then cleared at 15,000 rpm for 15 min at 4° C. The protein content was quantified using a Bio-Rad Protein Assay kit (Bio-Rad Laboratories, Hercules, Calif.). The equal amount of protein was separated on Tris-glycine gels (Invitrogen). The separated proteins were blotted onto a polyvinylidene difluoride membrane and blocked overnight at 4° C. in phosphate-buffered saline containing 0.1% Tween 20 and 10% nonfat dry milk (blocking buffer). Membranes were incubated with primary antibodies in blocking buffer overnight at 4° C. Primary antibodies used were: β-actin from Sigma; Bax, Bak, Caspase-9 and cleaved Caspase-3 from Cell Signaling Technology; phospho-Histone H2AX (Ser 139) and Noxa from Millipore. Membranes were then washed and incubated in peroxidase conjugated anti-rabbit IgG (Sigma) or anti-mouse IgG (Sigma) secondary antibody for 1 h at room temperature. Membranes were developed using SuperSignal West Femto Maximum Sensitivity Substrate (Thermo Fisher Scientific).
A2780cis cells were treated with cisplatin alone, compounds alone or in combination with cisplatin at indicated concentrations for 20 h to analyze apoptotic cell death in response to treatment. […] Expression and cleavage of several major caspases (Caspase-8, Caspase-9 and Caspase-3), as well as poly(ADP-ribose) polymerase (PARP) and NOXA. A2780cis cells were treated with cisplatin (20 μM) alone, compounds (20 μM) alone or in combination with cisplatin for 20 h.
To determine the effects of the compounds on DNA damage and mitochondrial dysfunction, A2780cis cells were treated with cisplatin (20 μM) alone or the combination of cisplatin with 20 μM of compound 1-6. Replication protein A (RPA) is a single strand-specific DNA-binding protein, consisting of three subunits, RPA70, RPA32, and RPA14. RPA32 is phosphorylated in response to DNA replication stress. Western blot analysis was performed to evaluate the phosphorylation of RPA32 and histone H2AX, the induction of Noxa expression and cleavage of caspase-3. […] A2780cis cells were treated with cisplatin (50 μM) alone, 1-6 (50 μM) alone or the combination of cisplatin and compound 1-6 for 4 h. The oxygen consumption rate (OCR) was measured by a Seahorse extracellular flux analyzer.

[3] = compound 10 μM + carboplatin 200 μM, 24 h
[4] = compound 10 μM + cisplatin 20 μM, 24 h
[5] = compound 20 μM + carboplatin 200 μM, 24 h
[6] = compound 20 μM + cisplatin 20 μM, 24 h
[7] = compound 50 μM + carboplatin 200 μM, 24 h
[8] = compound 50 μM + cisplatin 20 μM, 24 h
[9] = Table 1, compound 20 μM with 20 μM cisplatin
[10] = Table 1, compound 20 μM, mean ± S.D. of triplicates
[11] = compound 5 μM + cisplatin 20 μM
[12] = compound 10 μM + cisplatin 20 μM
[13] = compound 20 μM + cisplatin 20 μM
[14] = Table 3, compound 20 μM with 20 μM of cisplatin

| Compound | viability at 10 µM ([1]; compound 10 μM, 24 h) [%] | viability at 20 µM ([1]; compound 20 μM, 24 h) [%] | viability at 50 µM ([1]; compound 50 μM, 24 h) [%] | Survival (%) of cells with compound and carboplatin (200 μM) [1, 3] | survival (%) of cells with compound and cisplatin (20 μM) [1, 4] [%] | Survival (%) of cells with compound and carboplatin (200 μM) [1, 5] [%] | survival (%) of cells with compound and cisplatin (20 μM) [1, 6] [%] | Survival (%) of cells with compound and carboplatin (200 μM) [1, 7] [%] | survival (%) of cells with compound and cisplatin (20 μM) [1, 8] [%] | caspase-3/7 activity (Lum), compound with cisplatin [2, 9] [Lum] | caspase-3/7 activity (Lum), compound alone [2, 10] [Lum] | caspase-3/7 activity (Lum), compound alone ([2]; Table 2, compound 20 μM) [Lum] | caspase-3/7 activity (Lum) with compound and cisplatin (20 μM) [2, 11] [Lum] | caspase-3/7 activity (Lum) with compound alone ([2]; compound 5 μM) [Lum] | caspase-3/7 activity (Lum) with compound and cisplatin (20 μM) [2, 12] [Lum] | caspase-3/7 activity (Lum) with compound alone ([2]; compound 10 μM) [Lum] | activity in the screen (Caspase-3/7 activity and microscopic examination), active / inactive ([2]; in words) | caspase-3/7 activity (Lum), compound with cisplatin [2, 14] [Lum] | caspase-3/7 activity (Lum), compound alone ([2]; Table 3, compound 20 μM) [Lum] | caspase-3/7 activity (Lum), compound alone ([2]; Table 4, compound 20 μM) [Lum] | other results |
| --- | --- | --- | --- | --- | --- | --- | --- | --- | --- | --- | --- | --- | --- | --- | --- | --- | --- | --- | --- | --- | --- |
| CCCn1c(=S)[nH]c2cc(OC)c(OC)cc2c1=O [Compound 1-8] | 99.6 ± 2.9 | 96.3 ± 3.2 | 88.4 ± 2.1 | 89.5 + 2.1% | 53.4 ± 1.5 | 65.8 ± 3.5 | 25.9 ± 2.3 | 42.5 ± 2.3 | 17.9 ± 1.3 | 121 ± 4 | 14 ± 2 | 14 ± 2 | 38 ± 4 | 10 ± 1 | 72 ± 1 | 10 ± 1 | active | – | – | – | cell viability after combination with carboplatin compared to carboplatin alone ([1]; 24 h, FIG. 6, in words): cell viability was reduced; potency at enhancing the cytotoxicity of cisplatin compared to mdivi-1 ([1]; compound 10 μM with cisplatin, FIG. 4, in words): more potent than mdivi-1; activation of Caspase-3/7 in combination with cisplatin compared to mdivi-1 ([2]; FIG. 7A and Table 6, in words): more effective; also recorded: more potent than mdivi-1; caspase-3/7 activity (Lum) with compound and cisplatin (20 μM) [2, 13]: 93 ± 4 Lum; caspase-3/7 activity (Lum) with compound alone ([2]; compound 20 μM): 11 ± 1 Lum; Caspase-3/7 activity upon combination with cisplatin compared to cisplatin alone or compound alone ([2]; in words): increase in Caspase-3/7 activity; cleavage of caspases and PARP, induction of Noxa in combination with cisplatin (A2780cis cells): cleavage of Caspase-8, 9, 3, PARP and the induction of Noxa |
| Cc1ccc(NC(=S)NC(=O)c2cccs2)nc1 [Compound 2-19] | 97.3 ± 1.8 | 95.9 ± 2.1 | 95.1 ± 6.4 | – | 100.4 ± 1.2 | – | 85.4 ± 9.6 | – | 53.2 ± 16.0 | – | – | – | – | – | – | – | active | 50 ± 8 | 9 ± 1 | 9 ± 1 | – |
| O=C(NC(=S)Nc1ccccn1)c1ccccc1 [Compound 2-32] | 97.2 ± 2.9 | 96 ± 1.7 | 81.8 ± 5.2 | – | 102.7 ± 3.9 | – | 64.9 ± 10.6 | – | 33.4 ± 11.8 | – | – | – | – | – | – | – | active | 4 ± 1 | 0 ± 1 | 0 ± 1 | response in the CellTiter-Blue cell viability assay ([1]; in words): positive response; activity in the Caspase-3/7 activity assay ([2]; in words): lack of activity |
| CC(C)C(=O)NC(=S)Nc1nc2ccc(Cl)cc2s1 [Compound 2-33] | 84.8 ± 4.1 | 77.9 ± 1.1 | 65 ± 6.4 | – | 92.5 ± 4.8 | – | 70.4 ± 4.9 | – | 58.6 ± 7.4 | – | – | – | – | – | – | – | active | 23 ± 3 | 11 ± 2 | 11 ± 2 | response in the CellTiter-Blue cell viability assay ([1]; in words): positive response; activity in the Caspase-3/7 activity assay ([2]; in words): lack of activity |
| COc1cc(-n2c(=S)[nH]c3ccccc3c2=O)c(Cl)cc1Cl [mdivi-1, reference compound] | – | – | – | 92.6 ± 3.5% | 87.4 ± 2.9 | 75.1 ± 3.9 | 39.2 ± 2.7 | 40.6 ± 3.0 | 26.3 ± 3.4 | 102 ± 3 | 28 ± 5 | 28 ± 5 | 22 ± 2 | 10 ± 1 | 24 ± 3 | 10 ± 1 | – | 80 ± 11 | 20 ± 3 | 20 ± 3 | survival (%) of cells with compound alone ([1]; compound 10 μM, 24 h): 98.4 ± 2.4%; survival (%) of cells with compound alone ([1]; compound 20 μM, 24 h): 78.4 ± 3.8%; survival (%) of cells with compound alone ([1]; compound 50 μM, 24 h): 61.6 ± 4.4%; caspase-3/7 activity (Lum) with compound and cisplatin (20 μM) [2, 13]: 84 ± 3 Lum; caspase-3/7 activity (Lum) with compound alone ([2]; compound 20 μM): 24 ± 2 Lum |
